{
  "source": "patent US10209240B2",
  "about": "“Predicting human developmental toxicity of pharmaceuticals using human stem-like cells and metabolomic ratios” (STEMINA BIOMARKER DISCOVERY, INC., priority 2012, dated 2019)",
  "key": {"WA09 hES cells": {"tested_on": "WA09 hES cells", "conditions": "for Teratogenicity Potential (μM) Cell Viability: human, 72 h"}, "hES cells [1]": {"tested_on": "hES cells", "test": "devTOX computational model predictions (Version 2.0, Version 2.1) from hES cell metabolomics", "type": "cell-based, human", "conditions": "single dose per treatment (Dose column)", "excerpt": "The selection process weighted the predictive capacity of a feature, overall intensity, and peak shape to identify very well behaved features/metabolites that could be measured by targeted LC-MS or even by other detection systems.\nThis simplified model is based on a ratio of the reference treatment (DMSO) normalized values of ADMA and cystine."}, "hES cells [2]": {"tested_on": "hES cells", "test": "ADMA/cystine ratio simplified predictive model in hES cell spent media", "type": "cell-based, human", "conditions": "single dose per treatment; ratios less than 0.9 indicate teratogenicity", "procedure,_shortened": "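hES cell spent media were analysed for ADMA and cystine, each normalized to the DMSO reference, and their ratio formed. Each value is the median of independent blocks (6 reps each). A ratio cutoff of 0.9 classifies teratogens versus non-teratogens.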"}, "[3]": {"conditions": "training set; therapeutic peak plasma in vivo concentration, human; cited from earlier work"}, "Humans": {"tested_on": "Humans", "conditions": "cited from earlier work; for Humans (known human developmental toxicity): training and test set; for Known Effect: validation and test set treatments of Example 2"}, "Rabbit": {"tested_on": "Rabbit", "conditions": "training and test set; cited from earlier work"}, "zebrafish": {"tested_on": "zebrafish", "conditions": "training and test set; weak/moderate and strong teratogens both labeled teratogen; cited from earlier work"}, "rat whole embryo": {"tested_on": "rat whole embryo", "conditions": "training and test set; weak/moderate and strong teratogens both labeled teratogen; cited from earlier work"}, "[4]": {"conditions": "training set compounds; summarized from TERIS and Briggs et al. 2011; cited from earlier work"}},
  "data": [
    {"molecule": "CC1=C(/C=C/C(C)=C/C=C/C(C)=C\\C(=O)O)C(C)(C)CCC1", "note": "[13-cis Retinoic Acid]", "values": [
      {"measurement": "Viability Prediction", "setting": "WA09 hES cells", "value": "NON"},
      {"measurement": "Teratogenicity Potential (μM) Cell Viability", "setting": "WA09 hES cells", "value": ">300", "unit": "µM"},
      {"measurement": "Model Predictions Version 2.0", "setting": "hES cells [1]", "value": "Ter"},
      {"measurement": "Model Predictions Version 2.1", "setting": "hES cells [1]", "value": "Ter"},
      {"measurement": "Model Predictions ADMA/Cystine", "setting": "hES cells [2]", "value": "Ter"},
      {"measurement": "Cmax", "setting": "[3]", "value": 2900, "unit": "nM"},
      {"measurement": "Humans (known human developmental toxicity)", "setting": "Humans", "value": "TER"},
      {"measurement": "Known Effect", "setting": "Humans", "value": "Ter"},
      {"measurement": "Rabbit prediction", "setting": "Rabbit", "value": "TER"},
      {"measurement": "ZET prediction", "setting": "zebrafish", "value": "TER^r"},
      {"measurement": "WEC prediction", "setting": "rat whole embryo", "value": "TER^s"},
      {"measurement": "Preclinical in vivo and known human developmental effects", "setting": "[4]", "value": "Craniofacial, limb, central"}
    ]},
    {"molecule": "CC1=C(/C=C/C(C)=C/C=C/C(C)=C/C(=O)O)C(C)(C)CCC1", "note": "[All-trans Retinoic Acid]", "values": [
      {"measurement": "Viability Prediction", "setting": "WA09 hES cells", "value": "NON"},
      {"measurement": "Teratogenicity Potential (μM) Cell Viability", "setting": "WA09 hES cells", "value": 114.5, "unit": "µM"},
      {"measurement": "Model Predictions Version 2.0", "setting": "hES cells [1]", "value": "Ter"},
      {"measurement": "Model Predictions Version 2.1", "setting": "hES cells [1]", "value": "Ter"},
      {"measurement": "Model Predictions ADMA/Cystine", "setting": "hES cells [2]", "value": "Ter"},
      {"measurement": "Cmax", "setting": "[3]", "value": 1200, "unit": "nM"},
      {"measurement": "Humans (known human developmental toxicity)", "setting": "Humans", "value": "TER"},
      {"measurement": "Known Effect", "setting": "Humans", "value": "Ter"},
      {"measurement": "Rabbit prediction", "setting": "Rabbit", "value": "TER"},
      {"measurement": "ZET prediction", "setting": "zebrafish", "value": "TER^c,e,r"},
      {"measurement": "WEC prediction", "setting": "rat whole embryo", "value": "TER^q,s"},
      {"measurement": "Preclinical in vivo and known human developmental effects", "setting": "[4]", "value": "Craniofacial, limb, central"}
    ]},
    {"molecule": "NC(=O)N1c2ccccc2C=Cc2ccccc21", "note": "[Carbamazepine]", "values": [
      {"measurement": "Viability Prediction", "setting": "WA09 hES cells", "value": "NON"},
      {"measurement": "Teratogenicity Potential (μM) Cell Viability", "setting": "WA09 hES cells", "value": ">300", "unit": "µM"},
      {"measurement": "Model Predictions Version 2.0", "setting": "hES cells [1]", "value": "Ter"},
      {"measurement": "Model Predictions Version 2.1", "setting": "hES cells [1]", "value": "Ter"},
      {"measurement": "Model Predictions ADMA/Cystine", "setting": "hES cells [2]", "value": "Ter"},
      {"measurement": "Humans (known human developmental toxicity)", "setting": "Humans", "value": "TER"},
      {"measurement": "Known Effect", "setting": "Humans", "value": "Ter"},
      {"measurement": "ZET prediction", "setting": "zebrafish", "value": "TER^t"},
      {"measurement": "WEC prediction", "setting": "rat whole embryo", "value": "TER^j"},
      {"measurement": "Preclinical in vivo and known human developmental effects", "setting": "[4]", "value": "Craniofacial, central"}
    ]},
    {"molecule": "O=C1NC(=O)C(c2ccccc2)(c2ccccc2)N1", "note": "[Diphenylhydantoin]", "values": [
      {"measurement": "Viability Prediction", "setting": "WA09 hES cells", "value": "NON"},
      {"measurement": "Teratogenicity Potential (μM) Cell Viability", "setting": "WA09 hES cells", "value": 288.7, "unit": "µM"},
      {"measurement": "Model Predictions Version 2.0", "setting": "hES cells [1]", "value": "Non"},
      {"measurement": "Model Predictions Version 2.1", "setting": "hES cells [1]", "value": "Non"},
      {"measurement": "Model Predictions ADMA/Cystine", "setting": "hES cells [2]", "value": "Non"},
      {"measurement": "Humans (known human developmental toxicity)", "setting": "Humans", "value": "TER"},
      {"measurement": "Known Effect", "setting": "Humans", "value": "Ter"},
      {"measurement": "Rabbit prediction", "setting": "Rabbit", "value": "TER"},
      {"measurement": "ZET prediction", "setting": "zebrafish", "value": "NON^a"},
      {"measurement": "WEC prediction", "setting": "rat whole embryo", "value": "TER^f,j"},
      {"measurement": "Preclinical in vivo and known human developmental effects", "setting": "[4]", "value": "Craniofacial, limb,"}
    ]},
    {"molecule": "O=C1CCC(N2C(=O)c3ccccc3C2=O)C(=O)N1", "note": "(stereo not drawn) [Thalidomide]", "values": [
      {"measurement": "Viability Prediction", "setting": "WA09 hES cells", "value": "NON"},
      {"measurement": "Teratogenicity Potential (μM) Cell Viability", "setting": "WA09 hES cells", "value": ">300", "unit": "µM"},
      {"measurement": "Model Predictions Version 2.0", "setting": "hES cells [1]", "value": "Ter"},
      {"measurement": "Model Predictions Version 2.1", "setting": "hES cells [1]", "value": "Ter"},
      {"measurement": "Model Predictions ADMA/Cystine", "setting": "hES cells [2]", "value": "Ter"},
      {"measurement": "Cmax", "setting": "[3]", "value": 12400, "unit": "nM"},
      {"measurement": "Humans (known human developmental toxicity)", "setting": "Humans", "value": "TER"},
      {"measurement": "Known Effect", "setting": "Humans", "value": "Ter"},
      {"measurement": "Rabbit prediction", "setting": "Rabbit", "value": "TER"},
      {"measurement": "ZET prediction", "setting": "zebrafish", "value": "TER^d"},
      {"measurement": "WEC prediction", "setting": "rat whole embryo", "value": "TER^f"},
      {"measurement": "Preclinical in vivo and known human developmental effects", "setting": "[4]", "value": "Craniofacial,"}
    ]}
  ]
}
